Experimental data published in US20260151486A1, “PRESSURIZED NANOEMULSION” (BIOFRONTERA BIOSCIENCE GMBH, priority 2023, published 2026).

Tests used:
[1] = ALA content over storage time in nanoemulsion formulation; type: physicochemical; settings: in BF200 with PX=2%, 3% 5-ALA; after 36 months storage at 2-25° C.
Protocol: Nanoemulsion formulations BF200 PX=2% glass and BF200 PX=2% foam were prepared as described in Example 5. The nanoemulsion formulations were stored at 25° C. and 2-8° C. The content of ALA was determined at 0 (starting point) and various time points during the 36 months storage period.

[2] = TC content over storage time in nanoemulsion formulation; type: physicochemical; settings: in BF220 with PX=4%, 0.1% TC
Protocol: Nanoemulsion formulations BF220 TC=0.1% glass and BF220 TC=0.1% foam were prepared as described in Example 6. The nanoemulsion formulations were stored at 2-8° C. and 25° C. The content of TC was determined at 0 (starting point) and various time points up to 48 months storage period.

[3] = room temperature; cited from earlier work

Row | ALA content [1] | TC content ([2]; after 6 months at 25° C.) | TC content ([2]; after 48 months storage at 2-8° C.) | SMILES | stability in aqueous formulations [3]
1 | at least 90% |  |  | NCC(=O)CCC(=O)O [ALA, 5-aminolevulinic acid] | 
2 |  | at least 95% | at least 95% | C=CC[C@@H]1/C=C(\C)C[C@H](C)C[C@H](OC)[C@H]2O[C@@](O)(C(=O)C(=O)N3CCCC[C@H]3C(=O)O[C@H](/C(C)=C/[C@@H]3CC[C@@H](O)[C@H](OC)C3)[C@H](C)[C@@H](O)CC1=O)[C@H](C)C[C@@H]2OC [TC, Tacrolimus] | approx. 90 days
